Measurements published in PubChem BioAssay AID720589 (Broad Institute, 2013).
Activity calls are given as the source filed them.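 The calls were made as follows: active = fitted curve drops below -35% activity at a concentration within twice the top valid tested dose; inconclusive = no clear call, values can overlap the other calls; inactive = signal rising instead of falling, among other cases.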

Test: HepG2 hepatoma cell cytotoxicity, dose response, cytotoxicity control, CellTiter-Glo luminescence, cherry-pick, set 3 (AID 720589)
Details: HepG2 viability, ATP luminescence (CellTiter-Glo), 72 h, hits give low values
[1] = at 0.011 µM, 0% = untreated, negative = ATP loss
[2] = at 0.035 µM, 0% = untreated, negative = ATP loss
[3] = at 0.1 µM, 0% = untreated, negative = ATP loss
[4] = at 26 µM, 0% = untreated, negative = ATP loss
[5] = at 8 µM, 0% = untreated, negative = ATP loss
[6] = at 2.85 µM, 0% = untreated, negative = ATP loss
[7] = at 0.9 µM, 0% = untreated, negative = ATP loss

For `CC(=O)Nc1ccc(OCC(=O)N(CC(C)C)C2CCS(=O)(=O)C2)cc1` (centres undefined), the max activity [1] was 42.5% (inactive).

For `CCCCNC(=O)C(c1ccc(OCC(=O)OC)c(C(=O)OC)c1)N(CCOC)C(=O)CCCCCN1C(=O)NC(c2ccc(-c3ccccc3)cc2)C(C(=O)OCc2ccccc2)=C1C` (centres undefined), the max activity [1] was 32.5% (inactive).

For `CN(C)C(=S)N=Nc1[nH]c2ccccc2c1O`, the max activity [2] was 24.6% (inactive).

With `CCOC(=O)C1CCCCN1C(=O)CCc1c(C)nc2cc(-c3ccccc3)nn2c1C` (centres undefined) the max activity [3] was 21.3% (inactive).

In the case of `CCNC(=O)c1cccc(S(=O)(=O)N2CCCCCC2)c1`, the max activity [1] is reported as -31.4% (inactive).

For `O=C(O)c1ccc(N/N=C/c2c[nH]c3ccccc23)cc1`, the max activity [4] was -17.3% (inactive).

In the case of `Cc1ccc(N=C2NC(=O)/C(=C\c3cccs3)S2)cc1C`, the max activity [1] is reported as -17.8% (inactive).

With `CCc1ccc(S(=O)(=O)c2ccc(-n3nc(C)cc3N)cc2)cc1` the max activity [5] was 24% (inactive).

With `CC1=NN(c2ccccc2)C(=O)/C1=C\C=C\c1ccccc1` the max activity [4] was -54.8% (inactive).

In the case of `COc1ccc(C2=Nn3c(nnc3-c3ccccc3OC)SC2)cc1OCC1CC1`, the max activity [2] is reported as -29% (inactive).

For `CC(C)N1C/C(=C/c2cccnc2)C(=O)/C(=C/c2cccnc2)C1`, the max activity [4] was -29.5% (inactive).

In the case of `O=C1NC(=O)N(CCc2ccc(F)cc2)C(=O)/C1=C/C=C/c1ccccc1`, the max activity (at 0.3 µM) is reported as -15.6% (inactive).

With `Cc1sc2nc(CN3CCC(C)CC3)nc(Cl)c2c1C` the max activity [3] was 16.4% (inactive).

With `COc1cccc(S(=O)(=O)N(C)C[C@H]2OCc3cnnn3CCCC(=O)N([C@@H](C)CO)C[C@H]2C)c1` the max activity [3] was -29.1% (inactive).

For `CCn1c(C)cc(C(=O)CN2C(=O)c3ccccc3S2(=O)=O)c1C`, the max activity [3] was -11.5% (inactive).

In the case of `O=C(Nc1nc(-c2ccc(F)c(F)c2)cs1)c1ccc(OCC2CCCO2)cc1` (centres undefined), the max activity [4] is reported as -28.7% (inactive).

For `C[C@@H]1CN([C@@H](C)CO)S(=O)(=O)c2ccc(C#Cc3ccncc3)cc2O[C@H]1CN(C)C(=O)C1CCOCC1`, the max activity [1] was -28.4% (inactive).

For `CN1C(=O)c2cc(NC(=O)c3ccc(Cl)cc3)ccc2OC[C@@H]2O[C@@H](CC(=O)NCc3cccc(F)c3)CC[C@H]21`, the max activity [4] was -22.6% (inactive).

For `CCCCCCCCCCCCCCCCCCNc1ccn(C2OC(COP(=O)(O)OCC3OC(n4cc(F)c(=O)[nH]c4=O)CC3O)C(O)C2O)c(=O)n1` (centres undefined), the max activity [6] was -36% (inactive).

For `O=C(Nc1cccc(Oc2ccc3c(c2)C(=O)NC3=O)c1)c1cccs1`, the max activity [5] was -36% (inactive).

For `S=c1[nH]nc(-c2cc(-c3ccccc3)n[nH]2)n1/N=C/C(Br)=C/c1ccccc1`, the max activity [7] was -17.9% (inactive).

In the case of `COc1ccc(N=C2C(=O)Nc3ccc(C)c(Br)c32)cc1`, the max activity [1] is reported as 23.9% (inactive).

For `COc1ccc2oc(C(=O)NCCc3ccccc3)c(C)c2c1`, the max activity [1] was -16.8% (inactive).

With `COc1cccc(OC)c1C(=O)Nc1cc(C)nn1-c1nc2ccccc2[nH]1` the max activity [4] was -39.9% (inactive).

For `N#CC1=C(N)Oc2cc(N)ccc2C1c1cccc(Br)c1` (centres undefined), the max activity [4] was -27% (inactive).

In the case of `COC(=O)C[C@@H]1CC[C@@H]2[C@H](COc3ccc(NC(=O)c4cccc(Cl)c4)cc3C(=O)N2C)O1`, the max activity (at 2.6 µM, 0% = untreated, negative = ATP loss) is reported as -17.7% (inactive).

In the case of `CCOc1ccc(C(c2c(NC(=O)c3ccccc3)sc(C)c2C)N2CCN(CCO)CC2)cc1` (centres undefined), the max activity [4] is reported as -11.9% (inactive).

In the case of `Brc1ccc(CSc2nnc(-c3ccco3)o2)cc1`, the max activity [7] is reported as -28.4% (inactive).

With `Cc1ccccc1S(=O)(=O)N1CC[C@@H]2[C@@H](CO)Nc3ccc(-c4ccc(C#N)cc4)cc3[C@@H]21` the max activity [4] was -21.8% (inactive).

In the case of `COc1ccc(NC(=O)N(C)[C@H]2C[C@H]3c4[nH]c5ccccc5c4CCN3C(=O)[C@H]2CO)cc1`, the max activity [1] is reported as -20.5% (inactive).

In the case of `COC(=O)c1c(C)[nH]c(/C=N/Nc2ccccc2)c1C`, the max activity [1] is reported as -17.5% (inactive).

In the case of `Nc1ccc2oc(-c3cc(Br)ccc3Cl)nc2c1`, the max activity [2] is reported as -30.5% (inactive).

In the case of `COC(=O)C[C@H]1CC[C@@H](NC(=O)Nc2ccc(C(F)(F)F)cc2)[C@H](CO)O1`, the max activity [5] is reported as -14.3% (inactive).

With `Cc1ccccc1N=CC1=C(O)c2ccccc2C1=O` the max activity [6] was 18.8% (inactive).

In the case of `CC(C)c1ccccc1NC(=O)COC(=O)CCN1C(=O)/C(=C\C=C\c2ccccc2)SC1=S`, the max activity [5] is reported as -10% (inactive).

In the case of `C/C(=N\Nc1cccc2cccnc12)c1ccccn1`, the max activity [3] is reported as -36.8% (inactive).

With `O=C(O)c1cccc(N/N=C/c2ccc(OC(F)(F)F)cc2)c1` the max activity [6] was -28.9% (inactive).

In the case of `COc1ccc(-c2cnc3c(NC=O)cc(-c4ccccc4OC)cn23)cc1OC`, the max activity [6] is reported as -32.9% (inactive).

In the case of `Cc1c(N=Cc2cc(Br)cc(Br)c2O)cccc1C(=O)O`, the max activity [4] is reported as -9.11% (inactive).
